For the molecule `CCCS(=O)(=O)N[C@H](C(=O)NCCc1ccc(OCC#Cc2ccc(Cl)cc2)c(OC)c1)C(C)C` [Compound 1.204, (S)-2-(Propylsulfonyl-amino)-3-methyl-butyric acid N-[2-{3-methoxy-4-(3-(4-chlorophenyl)-2-propyn-1-yloxy)-phenyl}-ethyl]-amide], the melting point (in general, the temperature of the solid-liquid transition) was 131 to 133 °C.

(Values after US6482859B1, “Microbicidal N-sulfonylglycin alkynyloxyphenethyl amide derivatives” (priority 1997, dated 2002).)
